Reference: patent US7803377B2, “Anti-DLL4 antibodies and methods using same” (Genentech, Inc., priority 2006, dated 2010)

Tests used:
[1] = tested on: SK-OV-3X1, LL2, EL4, H11299, SKMES-1, MX-1, SW620 and LS174T models; assay: Tumor models, combination of YW26.82 with anti-VEGF where tested; assay type: in vivo, mouse; conditions: YW26.82 5 mg/kg and anti-VEGF 5 mg/kg, IP, twice weekly; models where the combination was tested
Procedure: Tumor models. Beige nude female mice of 8- to 10-week-old were used. To obtain subcutaneous tumors, mice were injected with 0.1 ml cell suspension containing 50% matrigel (BD Bioscience) into the right posterior flank. 5×10^6 human colon cancer HM7 cells, 10×10^6 human colon carcinoma Colo205 cells, 10×10^6 human lung carcinoma Calu6 cells, 10×10^6 human lung carcinoma MV-522 cells, 10×10^6 mouse leukemia WEHI-3 cells, 10×10^6 mouse lymphoma EL4 cells, 10×10^6 human ovarian cancer SK-OV-3 X1 cells, 10×06 mouse lung cancer LL2 cells, 10×10^6 leukemia/lymphoma EL4 cells, or 10×10^6 non-small lung cancer H1299 cells were injected into each mouse. For human melanoma MDA-MB-435 model, mice were injected into the mammary fat pad with 0.1 ml cell (5×10^6) suspension containing 50% matrigel. […] For the following tumor models, each test mouse received a subcutaneous tumor fragment (1 mm^3) implanted in the right flank: non-small lung cancer SKMES-1, human breast cancer MX-1, human colorectal cancer SW620 and human adenocarcinoma LS174T. The tumor growth was quantitated by caliper measurements. Tumor volume (mm^3) was determined by measuring the length (l) and width (w) and calculating the volume (V=lw2/2). 10 to 15 animals were included in each group. Statistical comparison of treatment groups was performed using two-tailed Student's t-test. […]

[2] = tested on: EL4 mouse lymphoma tumor; assay: Tumor vascular labeling and immunohistochemistry (EL4 tumors); assay type: in vivo
Procedure: Tumor vascular labeling and immunohistochemistry. Mice were anesthetized with Isoflurane. FITC-labeled Lycopersicon esculentum Lectin (150 μg in 150 μl of 0.9% NaCl; Vector Laboratories) was injected i.v. and allowed to circulate for 5 min before systemic perfusion. The vasculature was perfused transcardially with 1% PFA in PBS for 3 min. Tumors were removed and post fixed by immersion in the same fixative for 2 hr, followed by an incubation in 30% sucrose overnight for cryoprotection, then embedded in OCT. Sections (4 μm thickness) were stained with anti-mouse CD31 (1:50, BD Pharmingen), followed by Alexa 594 goat anti-rat IgG (1:800, Molecular Probes).
In light of the tumor growth inhibition, we used the EL4 mouse lymphoma tumor model for vascular histology studies.
Since in vitro blocking of DLL4/Notch pathway impaired the formation of lumen-like structure by ECs (FIG. 8a), it was investigated whether treatment with anti-DLL4 Mab caused similar defect in the tumor vasculature and affected efficient blood flow. […] Given the critical role of DLL4/Notch signaling in AV differentiation, both in embryos and early postnatal retinas, anti-DLL4 Mab could impact cell fate specification of tumor ECs and cause defective directional blood flow. […] Further studies utilizing vascular imaging techniques are needed to gain insights into the precise vascular defects.

[3] = biological target: Jag1 (Homo sapiens, UniProt P78504); assay: FACS analysis of transiently transfected 293 cells; assay type: binding; set-up: transiently transfected with vector, full length DLL4, Jag1 or DLL1; expressed in transfected cells; host or cells: 293 cells, transient; conditions: Jag1 transfected 293 cells; antibody 2 μg/ml
Excerpt: (§1) Expression of Jag1 and DLL1 was confirmed by the binding of recombinant rat Notch1-Fc (rrNotch1-Fc, middle panel) and recombinant rat Notch2-Fc (rrNotch2-Fc, bottom panel), respectively.

[4] = biological target: T1, DLL1 (Homo sapiens, UniProt O00548); assay: FACS analysis of transiently transfected 293 cells; assay type: binding; set-up: transiently transfected with vector, full length DLL4, Jag1 or DLL1; expressed in transfected cells; host or cells: 293 cells, transient; conditions: DLL1 transfected 293 cells; antibody 2 μg/ml
T1 sequence (O00548 18-723): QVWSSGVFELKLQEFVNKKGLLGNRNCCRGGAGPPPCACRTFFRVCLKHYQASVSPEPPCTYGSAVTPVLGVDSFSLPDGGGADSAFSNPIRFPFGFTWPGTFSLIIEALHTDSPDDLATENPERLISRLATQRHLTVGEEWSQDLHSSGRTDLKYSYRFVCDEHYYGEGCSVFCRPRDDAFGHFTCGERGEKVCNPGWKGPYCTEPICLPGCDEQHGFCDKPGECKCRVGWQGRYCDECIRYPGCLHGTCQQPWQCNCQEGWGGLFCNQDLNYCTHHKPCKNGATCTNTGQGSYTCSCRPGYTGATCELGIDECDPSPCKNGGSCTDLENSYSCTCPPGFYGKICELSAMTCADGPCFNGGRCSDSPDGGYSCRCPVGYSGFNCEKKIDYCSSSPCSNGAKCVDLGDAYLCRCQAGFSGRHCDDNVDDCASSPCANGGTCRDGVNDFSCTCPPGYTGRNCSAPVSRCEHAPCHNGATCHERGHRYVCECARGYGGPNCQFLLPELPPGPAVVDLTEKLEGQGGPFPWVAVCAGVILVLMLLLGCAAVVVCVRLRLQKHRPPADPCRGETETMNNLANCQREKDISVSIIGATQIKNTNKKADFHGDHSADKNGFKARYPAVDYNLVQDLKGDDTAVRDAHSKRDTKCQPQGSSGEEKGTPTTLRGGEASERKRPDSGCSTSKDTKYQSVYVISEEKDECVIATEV
Excerpt: as §1

YW26.82: affinity matured anti-DLL4 monoclonal antibody; HVR-H1/H2/H3 SEQ ID NO:1, 8, 9; HVR-L1/L2/L3 SEQ ID NO:10, 11, 18
efficacy in combination with anti-VEGF [1]: enhanced efficacy | endothelial cell density (anti-CD31) in tumor sections ([2]; EL4 tumors): dramatic increase in endothelial cell density | FITC-lectin labeling of tumor vessels (vascular perfusion) ([2]; systemic perfusion with FITC-lectin, EL4 tumor sections): marked reduction of lectin labeling of tumor vessels | binding by FACS [3]: Significant binding was not detected | binding by FACS [4]: Significant binding was not detected
